Counter-ions that a name gives are not always drawn.
System: swine adipose tissue
Assay: Inhibition of lipogenesis (lipid synthesis from glucose-U-14C) in swine adipose tissue slices
Assay type: cell-based
Details: Sus scrofa, 100 micrograms per milliliter, 37° C., 2 hours, glucose-U14C, insulin, 5% DMSO, triplicate, read-out: Percent Inhibition (of lipogenesis compared to control)
Excerpt: The manner in which they cause this effect is not known with certainty; it is believed that they interfere with the synthesis of fatty acids in the tissue. Their effectiveness for this purpose has been ascertained by immersing samples of swine adipose tissue in a liquid medium containing radioactive glucose and the test chemical for a period of time, then isolating the lipid from the treated tissue and determining the up-take of the radioactive carbon by means of scintillation counting techniques. These tests were conducted in swine adipose tissue because in swine the primary site of lipogenesis--i.e., fatty acid synthesis--appearsto be adipose tissue. […] 150 milligrams of slices of swine adipose tissue were incubated at 37° C. for 2 hours with shaking in 3 milliliters of Krebs-Ringer bicarbonate solution containing one-half the normal calcium ion concentration, 60 micromoles of glucose, 0.5 microCurie of glucose-U^14 C, and 300 microunits of insulin, and 5% dimethyl sulfoxide (DMSO). The test compounds were added as a solution or suspension in DMSO and were present at a concentration of 100 micrograms per milliliter of the incubation mixture. The incubation was terminated by addition of 0.25 milliliter of 1 N sulfuric acid. The resulting mixture was extracted with a total of 25 milliliters of chloroform:methanol (2:1, v/v). The extracts were washed according to Folch et al. (J. Biol. […] The tests were conducted in triplicate and were accompanied by control tests in which all ingredients,proportions and conditions were the same except that no test compound was included. From the data obtained were calculated the percent inhibition of lipid synthesis by the test compound in each case. The data obtained from the tests were set out in Table I, as the percent inhibition of lipogenesis compared to the results obtained in the control tests wherein only the test compound was omitted.

Structure (SMILES) | inhibition at 100 µg/mL [%]
CCOC(=O)C1CNc2ccc([N+](=O)[O-])cc2O1 (stereo not drawn) [Compound 14, ethyl 7-nitro-3,4-dihydro-2H-1,4-benzoxazine-2-carboxylate] | 92
CCOC(=O)C1CNc2cc(OC)ccc2O1 (stereo not drawn) [Compound 8, ethyl 6-methoxy-2,3-dihydro-2H-1,4-benzoxazine-2-carboxylate] | 81
CCOC(=O)C1CNc2cc(NS(C)(=O)=O)ccc2O1 (stereo not drawn) [Compound 6, ethyl 3,4-dihydro-6-((methylsulfonyl)amino)-2H-1,4-benzoxazine-2-carboxylate] | 76
CCOC(=O)C1CNc2cccc(Cl)c2O1 (stereo not drawn) [Compound 12, ethyl 8-chloro-3,4-dihydro-2H-1,4-benzoxazine-2-carboxylate] | 39
CCOC(=O)C1CNc2ccccc2O1 (stereo not drawn) [Compound 1A, 3,4-dihydro-2H-1,4-benzoxazine-2-carboxylic acid ethyl ester hydrochloride] | 62
CCOC(=O)C1CNc2cc(Cl)c(Cl)cc2O1 (stereo not drawn) [Compound 9, ethyl 6,7-dichloro-2,3-dihydro-2H-1,4-benzoxazine-2-carboxylate] | 56
CCOC(=O)C1CNc2cc(Cl)ccc2O1 (stereo not drawn) [Compound 2, Ethyl 6-chloro-3,4-dihydro-2H-1,4-benzoxazine-2-carboxylate] | 28
CCOC(=O)C1CNc2cc([N+](=O)[O-])cc(Cl)c2O1 (stereo not drawn) [Compound 11, ethyl 8-chloro-6-nitro-3,4-dihydro-2H-1,4-benzoxazine-2-carboxylate] | 31
CCOC(=O)C1CNc2cc([N+](=O)[O-])ccc2O1 (stereo not drawn) [Compound 4, ethyl 6-nitro-3,4-dihydro-2H-1,4-benzoxazine-2-carboxylate] | 74
CCOC(=O)C1CNc2cc(N)ccc2O1 (stereo not drawn) [Compound 5, ethyl 6-amino-3,4-dihydro-2H-1,4-benzoxazine-2-carboxylate hydrochloride] | 43
CCOC(=O)C1CNc2cc(C(F)(F)F)ccc2O1 (stereo not drawn) [Compound 7, ethyl 6-(trifluoromethyl)-3,4-dihydro-2H-1,4-benzoxazine-2-carboxylate] | 31
CCOC(=O)C1CNc2ccc(C)cc2O1 (stereo not drawn) [Compound 10, ethyl 7-methyl-3,4-dihydro-2H-1,4-benzoxazine-2-carboxylate] | 54
CCOC(=O)C1CNc2cc(-c3ccccc3)ccc2O1 (stereo not drawn) [Compound 13, ethyl 6-phenyl-3,4-dihydro-2H-1,4-benzoxazine-2-carboxylate] | 34
CCOC(=O)C1CNc2cc(C)ccc2O1 (stereo not drawn) [Compound 3, Ethyl 6-methyl-3,4-dihydro-2H-1,4-benzoxazine-2-carboxylate hydrochloride] | 18
CCOC(=O)C1CN(Cc2ccccc2)c2ccccc2O1 (stereo not drawn) [Compound 1, Ethyl 3,4-dihydro-4-benzyl-2H-1,4-benzoxazine-2-carboxylate] | 53

Source: patent US4180572A, “Lipogenesis control by esters of benzoxazinecarboxylic acids” (Shell Oil Company, priority 1978, dated 1979)
